This is an account of results in PMC9105976, “A Novel β-Hairpin Peptide Z-d14CFR Enhances Multidrug-Resistant Bacterial Clearance in a Murine Model of Mastitis” (International Journal of Molecular Sciences, 2022).

In data set [1] the test system is Proteus vulgaris CVCC1971. The data set can be described thus: MIC/MBC, microdilution broth method. Particulars: Proteus vulgaris CVCC1971; kills 99.9% bacteria; NA = no activity at 1 mg/mL. It counts as cell-based. In short, it runs like this: (§1)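 Equal volumes of cell suspension and compound solution are mixed; compounds (peptides, ampicillin, gentamicin) are supplied at 0.001 to 2 mg/mL prior to dilution, and cells at 1 × 10^6 CFU/mL in 10 mM PBS, derived from cultures at OD600 0.6.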
A general note: Broth dilution looks for growth in wells or tubes with falling amounts of substance.

For data set [2], the system named is Streptococcus suis CVCC3307. Briefly: MIC/MBC, microdilution broth method. It counts as cell-based. Particulars: Streptococcus suis CVCC3307; kills 99.9% bacteria; NA = no activity at 1 mg/mL. In short, it runs like this: as §1
Data set [3] concerns MRSA ATCC33591. The data set can be described thus: MIC/MBC, microdilution broth method. It counts as cell-based, S. aureus. Particulars: MRSA ATCC33591; kills 99.9% bacteria; NA = no activity at 1 mg/mL. The gist of the method: as §1
The nature of data set [4]: Retention time of peptide in HPLC (hydrophobicity). Particulars: used as measure of hydrophobicity (order Z-d14CR > Z-d14CF > Z-d13 > Z-d14CFR > Z-d14C); column and gradient not given. The data set is classed as physicochemical.
Data set [5] relates to mammalian cells (MAC-T, Hela, Vero). The data set can be described thus: Cytotoxicity, CCK8. It counts as cell-based. To be noted: at 1 mg/mL, 24 h in DMEM with 1% FBS, CCK8, OD 450 nm, three independent experiments. The protocol: The cytotoxicity of peptides to mammalian cells was carried out according to CCK8 instructions (Beyotime, Shanghai, China). 1 × 10^4 Hela, Vero and MAC-T cells were, respectively, added in 96-well plates and cultured at 37 °C with 5% CO2 for 24 h. Then, the cells were washed thrice with 10 mM PBS to remove medium and then incubated with 100 μL peptide in DMEM with 1 % (v/v) FBS (finally concentration ranging from 1 mg/mL to 0.001 mg/mL). After incubating at 37 °C with 5% CO2 for 24 h, 10 μL CCK8 was added to the cells and then continued to be incubated at 37 °C for 4 h. CCK8 interacted with PBS without cells as the blank control. The absorbance of the mixture was measured at 450 nm and cell viability was calculated as follows: Cell viability (%) = (OD 450 peptide − OD 450 Blank)/(OD 450 PBS − OD 450 Blank) × 100%.

In data set [6] the test system is E. coli ATCC25922. The data set can be described thus: Time-killing assay. It counts as cell-based. To be noted: 2 MIC, CFU counts at 0-24 h. How it is done:
(§2) E. coli ATCC25922 and S. aureus ATCC29213 in the mid-logarithmic phase were diluted into 1 × 10^6 CFU/mL with 10 mM PBS, and incubated with 10 μL Z-d14CFR in a final concentration of 2 MIC. At 0, 4, 8, 12, 16, 20, and 24 h, the mixture was serial diluted and spread onto LB agar plates. After 16 h of cultivation, the CFU number of bacteria was counted to evaluate the ability of peptide to kill bacteria. The bacteria treated with 10 mM PBS as a negative control, and meanwhile incubated with 2 MIC gentamicin or polymyxin B as a positive control.

Data set [7] deals with S. aureus ATCC29213. The data set can be described thus: Time-killing assay. It counts as cell-based. Particulars: 2 MIC, CFU counts at 0-24 h. The protocol:
as §2

Data set [8] deals with E. coli ATCC25922 and S. aureus ATCC29213. The data set can be described thus: Cytoplasmic membrane depolarization, DiSC3(5). Particulars: 2 MIC to 1/4 MIC; fluorescence 622/670 nm, 30 min. It counts as cell-based. The protocol: The ability of Z-d14CFR to disrupt inner cytoplasmic membrane potential of E. coli ATCC25922 and S. aureus ATCC29213 was monitored using 3,3-dipropylthiadicarbocyanine iodide DiSC3(5) (Macklin, D864435, Shanghai, China) as previous mentioned. The bacteria were washed and resuspended with 5 mM HEPES, pH 7.4, containing 5 mM glucose and 100 mM KCl buffer into 1 × 10^6 CFU/mL. DiSC3(5) was subsequently added and incubated at 37 °C in the dark for 15 min until the fluorescence had stabilized. Z-d14CFR in a final concentration of 2 MIC, 1 MIC, 1/2 MIC and 1/4 MIC was added to the mixture. The fluorescence intensity was continuously monitored for 30 min by an excitation wavelength of 622 nm and an emission wavelength of 670 nm.

Data set [9] has as its system E. coli ATCC25922. The data set can be described thus: Extracellular β-galactosidase assay. It counts as cell-based. Particulars: 2 MIC, 4 h at 37 °C, ONPG, OD 420 nm, compared with PBS, p < 0.001. How it is done: (§3) E. coli ATCC25922 and S. aureus ATCC29213 were washed and resuspended with 10 mM PBS into OD 600 = 0.5. […] Then, 190 μL of the supernatants was incubated with 10 μL 2-nitrophenyl-β-d-galactopyranoside, ONPG (Macklin, N814742, Shanghai, China) at a final concentration of 3 mM at 37 °C for 30 min. The absorbance at 420 nm was measured to assess the level of β-galactosidase outside the cells. The bacteria treated with 10 mM PBS in absence of peptide as the negative control and treated with ultrasonication as the positive control.

Data set [10] deals with S. aureus ATCC29213. The data set can be described thus: Extracellular β-galactosidase assay. It counts as cell-based. Particulars: 2 MIC, 4 h at 37 °C, ONPG, OD 420 nm, compared with PBS, p < 0.001. How it is done: as §3
Data set [11] relates to E. coli ATCC25922. The data set can be described thus: Cytoplasmic membrane integrity, SYTO 9/PI flow cytometry. The data set is classed as cell-based. To be noted: 2 MIC, 3 h, flow cytometry, 10,000 cells, PBS 0%. The protocol:
(§4) E. coli ATCC25922 and S. aureus ATCC29213 (OD600 = 0.6) were washed and diluted into 1 × 10^8 CFU/mL in sterile saline. The cells were treated with Z-d14CFR in the final concentration of 2 MIC for 3 h. Following that, the same volume of a mixture contains SYTO 9 dye and PI (Thermo Fisher, Waltham, MA, USA) (v/v, 1:1) was added to bacteria and incubated at 37 °C in the dark for 15 min. The bacteria were washed with saline to remove the unbound dye and then observed with a Nikon A1 confocal laser scanning microscope.
(§5) In order to further determine the percentage of PI-positive cells, the data of 10,000 cells were collected and analyzed by BD LSRFortessa flow cytometer.
Background: In flow cytometry, cells or beads pass a laser one at a time.

Data set [12] has as its system S. aureus ATCC29213. Described as above. It counts as cell-based. To be noted: 2 MIC, 3 h, flow cytometry, 10,000 cells, PBS 0.4%. How it is done:
as §4, §5

Data set [13] deals with E. coli CAU201919. The data set can be described thus: Murine model of mastitis induced by MDR E. coli. To be noted: Z-d14CFR 25 μg or gentamicin 10 μg via milk duct at 3 h and 15 h, 27 h post-infection. The data set is classed as in vivo, mice. An excerpt:
In this study, the therapeutic effects of Z-d14CFR on MDR bacterial infection in vivo was verified by a murine mastitis model. E. coli CAU201919 was used to establish the mastitis model because it is highly pathogenic compared with other bacteria and is resistant to various antibiotics, such as ampicillin, amoxicillin and cefazolin. In brief, 45 Crl:CD1 female mice at 17–18 days of gestation were purchased from Beijing Vital River Laboratory Animal Technology Co., Ltd. (Beijing, China) and kept in the Laboratory Animal Center of China Agricultural University (Beijing, China). At 72 h post-partum, the mice were randomly divided into 5 groups (n = 9 per group) and the offspring were removed 3 h before of administration. The mice were anesthetized by Zoletil 50 (55 mg/kg body weight, WK001, Virbac, France) and held under the stereoscope in a supine position. Mice in the saline group and Z-d14CFR group were intraductal inoculated with 50 μL normal saline or 50 μL Z-d14CFR (25 μg each teat) alone to the milk duct. Mice in other groups were inoculated with 25 μL (1 × 10^5 CFU) E. coli CAU201919 suspension to the milk duct, and after 3 h of E. coli challenged, mice were treated with 25 μL saline, Z-d14CFR (25 μg) or gentamicin (10 μg), respectively, via milk duct injection. Then the mice were given the same treatment after 15 h of E. coli challenged. After 27 h of E. coli challenged, all mice were euthanized. The mammary gland tissues were collected to carry out bacterial count, histopathological examination and inflammatory factors examination.

Molecules are shown by their SMILES. Positions of bridges follow the written chain, without caps; N, C: chain ends. Residues, ends and D or L forms follow the SMILES beside them.

With `CC(C)[C@@H]1NC(=O)[C@@H]2CSSC[C@H](NC(=O)[C@H](CCCNC(=N)N)NC(=O)[C@@H](NC(=O)CNC(=O)[C@@H](N)CCCNC(=N)N)CSSC[C@@H](C(=O)N[C@@H](CCCNC(=N)N)C(N)=O)NC1=O)C(=O)N[C@@H](CC(N)=O)C(=O)N[C@@H](CO)C(=O)N[C@@H](CCCCN)C(=O)N[C@@H](CO)C(=O)N[C@@H](Cc1ccccc1)C(=O)N2` [Z-d14CFR] (H-RGCRCNSKSFCVCR-NH2; disulfide 3-13, 5-11; N-terminus assumed), the MBC result in [1], in data set [2] and in data set [3] was “NA (NA) (No antimicrobial activity at 1 mg/mL)” each time. For the same compound, the “RT, retention time of peptide in HPLC” value in data set [4] worked out at 7.820 min. In data set [5], this compound came in with a cytotoxicity of under 10%. For the same compound, the “time to kill bacteria in the logarithmic phase” value in data set [6] (1 × 10^6 CFU/mL) and in data set [7] (1 × 10^6 CFU/mL) was at most 4 h each time. Also, the “time to kill bacteria in the plateau” value in data set [6] and in data set [7] was at most 16 h each time. In addition, the “DiSC3(5) release (cytoplasmic membrane depolarization)” value in [8] was “remarkable releasing of DiSC3(5)”. In addition, the “extracellular release of β-galactosidase” value in [9] and in data set [10] was “significantly induced the release of β-galactosidase” each time. Also, the PI-positive bacteria in data set [11] is 12.5%; in data set [12], 3.4%. Besides, the “bacterial burden in the mammary gland” value in data set [13] (Crl:CD1 mice, 1 × 10^5 CFU E. coli CAU201919 intraductal, infected only about 3.71 × 10^9, p < 0.001) is 3.57 × 10^8 CFU/g tissue. Also, in [13], the “histopathologic damage of the mammary gland (acinar wall thickening, neutrophils infiltration)” value was “obviously ameliorated”. For the same compound, the “increase in IL-1β mRNA expression in the mammary gland” value in data set [13] (p < 0.001) is on record as “attenuated”. In [13] (p < 0.001), the “increase in TNF-α mRNA expression in the mammary gland” value was “attenuated”.
